Data on 18 compounds can be found in the AptaBench aptamer set (doi:10.1093/nar/gkaf219).

Common to all, as to conditions: 10 mM Tris-HCl, pH 7.4
For experiment [1], the system named is DNA aptamer or structured DNA GGGACGACGGGGGGCTTTAGGGTGTAGGAGTGGGGTGAGTCGTCCC
Experiment [2] has as its system DNA aptamer or structured DNA GGGACGACGGCACGAGGTTAATCGTTGGTTGCACTGCGCTGGGAGGCAGTCGTCCC
In experiment [3] the test system is DNA aptamer or structured DNA TTCAAATCTGCGGCGACTAATTCTTAGTGGTGGTTGCAATGCGCTGGGATGAGTCTAGATTTGAA
The test system of experiment [4] is DNA aptamer or structured DNA GGGACGACGGCACGTGGTTATTCGTTGGTTGCACTGCGCTGGGAGGCAGTCGTCCC
The test system of experiment [5] is DNA aptamer or structured DNA GGGACGACGGCACGAGGTTATTCGTTGGTTGCACTGCGCTGGGAGGAAGTCGTCCC
Experiment [6] concerns DNA aptamer or structured DNA GGGACGACCGGCTGTCTGGATGCATTGCGCCGGGAACTCGGACGGATGGTCGTCCC
The test system of experiment [7] is DNA aptamer or structured DNA GGGACGACGCACTATGGCTAGGGTTGGTACGGTCGTGAACCGCGGGGTGTCGTCCC
Experiment [8] concerns DNA aptamer or structured DNA CTTACGACTAGGTGTGGGTCGGCGCTAGGGGCAGGGTAGTCGTAAG
The test system of experiment [9] is DNA aptamer or structured DNA CTTACGACTTACTTTTGGGTTGTCTGGGTGGGAGGTATGTCGTAAG
Experiment [10] deals with DNA aptamer or structured DNA CTTACGACAAGGGATGTTTGTTAGTGTGTCGGTGCATTGTCGTAAG
Experiment [11] deals with DNA aptamer or structured DNA TTCAAATCTGGTGCCCTTTCGCAGTCGGTTGGTAATGAGACCACTTTAGAGTCTAGATTTGAA
The subject of experiment [12] is DNA aptamer or structured DNA GGGACGACCGTTGGCGAGTGTGTCCGGGGACTACAGGGGTCGTCCC
The subject of experiment [13] is DNA aptamer or structured DNA GGGACGACTAGCCCTAGCGTTGTTCGAGTCCATGAGTAGTCGTCCC
The test system of experiment [14] is DNA aptamer or structured DNA GGGACGACGGGGGGAGTTTGTTTGTGTGGGAGGGTCCAGTCGTCCC
Experiment [15] concerns DNA aptamer or structured DNA GGGACGACAAGTACCAAGGGTAGCTCTGCGTTGTTCGAGGTCGTCCC
The subject of experiment [16] is DNA aptamer or structured DNA GGGACGACGCGCATGTGGTGTCGGTCAGATGGGATGAAGTCGTCCC
For experiment [17], the system named is DNA aptamer or structured DNA TTCAAATCTAGCGCAGGTAGGGGTGTAGGCGTGGGGGTAAGTCTAGATTTGAA
Experiment [18] deals with DNA aptamer or structured DNA GGGACGACTAGCCCGGCGTTGTTCGAGTGCAGCGAGTAGTCGTCCC
The subject of experiment [19] is DNA aptamer or structured DNA GGGACGACCGGACTTGGGTGGGTGCTGGGGCTTGGGCGGTCGTCCC
Experiment [20] deals with DNA aptamer or structured DNA GGGACGACGCGTAGGTTCCCTAGCTGTGCGTCGTTCAAGTCGTCCC
The subject of experiment [21] is DNA aptamer or structured DNA GGGACGACCAGAATGGAAGCATTGGTTGCCGCAGGGTGCCGCAGTCGTCCC
In experiment [22] the test system is DNA aptamer or structured DNA GGGACGACGCGTACCTGTGGTAGTCGTACGTCGTTCAAGTCGTCCC
Experiment [23] concerns DNA aptamer or structured DNA GGGACGACTAGTGCCTTCGTGTTGTTCGGGAATCCGGTTCTGTCGTCCC
Experiment [24] has as its system DNA aptamer or structured DNA GGGACGACGAGTGCGGGGAGTGTGTTTCTGTGGGGGTCGTCGTCCC
In experiment [25] the test system is DNA aptamer or structured DNA GGGACGACGGGGATTCGGTTCGTCATTTGGCAGTGCCTCGTACGTCGTCCC
Experiment [26] concerns DNA aptamer or structured DNA GGGACGACTAGTGCCTTCGCGTTGTTCGGGAATCCGGTTCCGTCGTCCC
The subject of experiment [27] is DNA aptamer or structured DNA GGGACGACTAGTGCCTTCGCGTTGTACGGGAATCCGGTTCTGTCGTCCC
For experiment [28], the system named is DNA aptamer or structured DNA GGGACGACAGGGATTCGGTTCTCGATAAGTAGTGCCTCGTACGTCGTCCC
The test system of experiment [29] is DNA aptamer or structured DNA GGGACGACATGGGATGGAGCTATGCGAGCATGTGGTGTGTCGTCCC
The test system of experiment [30] is DNA aptamer or structured DNA GGGACGACAGGGATTCGCGGATTCGGAGAAAAGGGCTCGTACGTCGTCCC
Throughout, for binding call: call rule not given here.

`CNC(C)Cc1ccc2c(c1)OCO2` (centres undefined): the binding call in experiment [1] is listed as “no binding”; in experiment [2] it was “binds”; in [3], “binds”; in experiment [4], “binds”; in [5], “binds”; in experiment [6], “binds”. Also, in [7], the binding call is “no binding”.
`CN1C2CCC1[C@@H](C(=O)O)[C@@H](OC(=O)c1ccccc1)C2` (some centres undefined): the binding call in experiment [8], in [9] and in experiment [10] was “no binding” throughout.
`COC(=O)C(c1ccccc1)C1CCCCN1` (centres undefined): the binding call in [3] and in experiment [11] was “no binding” throughout.
Regarding `OC[C@@H](O)[C@@H](O)[C@H](O)[C@H](O)CO`, the binding call in [12], in experiment [8], in experiment [13], in [14] and in experiment [10] was “no binding” in each case.
In the case of `Cc1nnc2n1-c1ccc(Cl)cc1C(c1ccccc1)=NC2`, the binding call is “no binding” in [15]; “no binding” in experiment [12]; “no binding” in [8]; “binds” in experiment [16]; “no binding” in experiment [9]; “no binding” in experiment [13]. For the same compound, the binding call in [3] is reported as “no binding”.
As a reminder, the Kd is the free concentration of one partner at which half of the binding sites on the other are occupied at equilibrium, for simple one-to-one binding. Read a low Kd as tighter binding. In the case of `CN[C@@H](C)Cc1ccccc1`, the binding call in experiment [17], in [18], in experiment [1], in [8], in [16] and in [9] was “no binding” throughout. Further, the binding call in experiment [19], in experiment [20] and in experiment [21] was “no binding” in each case. The Kd in experiment [2] is 6.4 µM; in experiment [3] it was 5.67 µM; in experiment [4], 6.1 µM; in [5], 3.3 µM; in experiment [6], 8.9 µM; in experiment [7] it was 12.4 µM. Moreover, the Kd in experiment [11] was 4.44 µM.
`CC(=O)Nc1ccc(O)cc1`: the binding call in experiment [22] is “no binding”; in [19], “no binding”; in [20] it was “no binding”; in [14] it was “binds”.
On to `CCC(=O)C(CC(C)N(C)C)(c1ccccc1)c1ccccc1` (centres undefined), for which the binding call was “no binding” in experiment [1], “binds” in experiment [6] and “no binding” in experiment [7].
Consider `CCN(CC)CC(=O)Nc1c(C)cccc1C`, for which the binding call in experiment [17], in experiment [23], in experiment [18], in experiment [24], in [9] and in experiment [25] was “no binding” throughout. The binding call in experiment [7] was “no binding”.
Consider `CN[C@@H](C)[C@@H](O)c1ccccc1`, for which the binding call in experiment [2], in [5], in experiment [7] and in experiment [20] was “no binding” in each case.
Take `CN1CC[C@]23c4c5ccc(O)c4O[C@H]2[C@@H](O)C=C[C@H]3[C@H]1C5`: the Kd in experiment [26] worked out at 19.5 µM; in experiment [23], 1.9 µM; in experiment [27], 1.3 µM; in experiment [25] it was 1.5 µM; in experiment [28], 13.3 µM. Besides, the binding call in experiment [2], in [8] and in [5] was “no binding” each time.
Turning to `CC(C)[C@H](NC(=O)c1nn(Cc2ccc(F)cc2)c2ccccc12)C(N)=O`, the Kd in experiment [17] was determined as 0.053 µM; in experiment [1], 0.138 µM.
`COc1ccc2c3c1O[C@H]1C(=O)CC[C@@]4(O)[C@@H](C2)N(C)CC[C@]314`: the binding call in experiment [17], in experiment [1], in [9] and in [21] was “no binding” in each case. The Kd amounted to 0.99 µM in experiment [24]; 3.7 µM in [16]; 3.19 µM in experiment [29]; 1.69 µM in experiment [19]; 1.75 µM in experiment [14].
As to `CCCC(C(=O)c1ccc2c(c1)OCO2)N1CCCC1` (centres undefined), the binding call in experiment [2], in experiment [9], in [3], in [7] and in experiment [10] was “no binding” in each case.
Consider `NCC(O)c1ccc(O)c(O)c1` (centres undefined), for which the binding call was “no binding” in [30]; “no binding” in experiment [26]; “no binding” in experiment [23]; “binds” in [27]; “binds” in [2]; “binds” in experiment [3]. Moreover, the binding call in experiment [4] was “binds”; in [25], “no binding”; in experiment [5] it was “no binding”; in experiment [6] it was “no binding”; in experiment [28], “no binding”; in [7], “no binding”. For the same compound, the binding call in [11] was “no binding”.
For `c1ccc([C@H]2CN3CCSC3=N2)cc1`, the binding call in experiment [15], in experiment [12], in experiment [18], in [24], in experiment [8] and in [16] was “no binding” each time. The binding call is recorded as “no binding” in experiment [13], “binds” in experiment [20] and “no binding” in experiment [14].
Regarding `CC(N)Cc1ccccc1` (centres undefined), the binding call is “no binding” in [1]; “binds” in experiment [2]; “binds” in [3]; “binds” in [4]; “binds” in experiment [5]; “no binding” in experiment [6]. The binding call in experiment [7] is “binds”; in experiment [21] it was “no binding”; in experiment [11] it was “no binding”.
In the case of `CN1C(=O)CN=C(c2ccccc2)c2cc(Cl)ccc21`, the binding call is recorded as “no binding” in experiment [12]; “no binding” in experiment [24]; “no binding” in [8]; “binds” in [16]; “no binding” in [9]; “no binding” in experiment [13].
